Test results published in publication PMC7534351, “Imidazothiazole-based potent inhibitors of V600E-B-RAF kinase with promising anti-melanoma activity: biological and computational studies” (Journal of Enzyme Inhibition and Medicinal Chemistry, 2020).
Read-outs that look alike come from different tables or passages of the source. Each block holds one compound with its values, some of them ahead of it.

Tests used:
ALK = ALK (Homo sapiens, UniProt Q9UM73); assay: Kinase panel, ALK; format: biochemical; conditions: mean ± SEM
Experimental: (§1) In a final volume of 25 µL, the tested kinase (5–10 mU) was incubated with 25 mM Tris pH 7.5, 0.02 mM EDTA, 0.66 mg/mL myelin basic protein, 10 mM magnesium acetate and [γ^33P-ATP] (specific activity approx. 500 cpm/pmol, concentration as required). The reaction was initiated by the addition of the Mg-ATP mix. After incubation for 40 min at room temperature, the reaction was stopped by the addition of 5 µL of a 3% phosphoric acid solution. 10 µL of the reaction was then spotted onto a P30 filtermat and washed three times for 5 min in 75 mM phosphoric acid and once in methanol before drying and scintillation counting.

JNK1(α1) = JNK1(α1) (Homo sapiens, UniProt P45983); assay: Kinase panel, JNK1(α1); format: biochemical; conditions: mean ± SEM
Experimental: as §1

Aurora-A = Aurora-A (Homo sapiens, UniProt O14965); assay: Kinase panel, Aurora-A; format: biochemical; conditions: mean ± SEM
Experimental: as §1

ABL = ABL (Homo sapiens, UniProt P00519); assay: Kinase panel, ABL; format: biochemical; conditions: mean ± SEM
Experimental: as §1

[1] = tested on: UACC-62 melanoma cell line; assay: MTT assay, UACC-62; format: cell-based; conditions: Homo sapiens, 48 h, mean of triplicate assays ± SEM, read-out: Antiproliferative activity (IC50 value, µM) UACC-62
Experimental: (§2) The melanoma and normal skin cell lines were maintained in DMEM including 10% foetal bovine serum (FBS) and 1% penicillin/streptomycin in a humid atmosphere containing 5% carbon dioxide at 37 °C. […] The cells were incubated for 48 h following treatment with the test compounds. The cellular viability was assessed by the conventional 3–(4,5-dimethylthiazol-2-yl)-2,5-diphenyltetrazolium bromide (MTT) reduction assay. MTT assays were carried out with CellTiter 96® (Promega) according to the manufacturer’s instructions. The absorbance at 590 nm was recorded using EnVision 2103 (Perkin Elmer; Boston, MA, USA). The IC50 values were calculated using GraphPad Prism 4.0 software. Triplicate testing was performed.

30-kinase panel = 30-kinase panel as a whole; format: biochemical; conditions: 1 µM; all panel kinases apart from V600E-B-RAF and FLT3
Experimental: as §1

DMPK = DMPK (Homo sapiens, UniProt Q09013); assay: Kinase panel, DMPK; format: biochemical; conditions: mean ± SEM
Experimental: as §1

JAK1 = JAK1 (Homo sapiens, UniProt P23458); assay: Kinase panel, JAK1; format: biochemical; conditions: mean ± SEM
Experimental: as §1

[2] = tested on: SK-MEL-28 melanoma cell line; assay: MTT assay, SK-MEL-28; format: cell-based; conditions: Homo sapiens, 48 h, mean of triplicate assays ± SEM, read-out: Antiproliferative activity (IC50 value, µM) SK-MEL-28
Experimental: as §2

mTOR = mTOR (Homo sapiens, UniProt P42345); assay: Kinase panel, mTOR; format: biochemical; conditions: mean ± SEM
Experimental: as §1

A375 melanoma cell line = assay: MTT assay, A375; format: cell-based; conditions: Homo sapiens, A-375, 48 h, mean of triplicate assays ± SEM, read-out: Antiproliferative activity (IC50 value, µM) A375
Experimental: as §2

B-RAF^wt = B-RAF^wt (Homo sapiens, UniProt P15056); assay: Kinase panel, B-RAF wt; format: biochemical; conditions: mean ± SEM
Experimental: as §1

JAK2 = JAK2 (Homo sapiens, UniProt O60674); assay: Kinase panel, JAK2; format: biochemical; conditions: mean ± SEM
Experimental: as §1

A-RAF = A-RAF (Homo sapiens, UniProt P10398); assay: Kinase panel, A-RAF; format: biochemical; conditions: mean ± SEM
A-RAF, sequence (P10398 whole entry): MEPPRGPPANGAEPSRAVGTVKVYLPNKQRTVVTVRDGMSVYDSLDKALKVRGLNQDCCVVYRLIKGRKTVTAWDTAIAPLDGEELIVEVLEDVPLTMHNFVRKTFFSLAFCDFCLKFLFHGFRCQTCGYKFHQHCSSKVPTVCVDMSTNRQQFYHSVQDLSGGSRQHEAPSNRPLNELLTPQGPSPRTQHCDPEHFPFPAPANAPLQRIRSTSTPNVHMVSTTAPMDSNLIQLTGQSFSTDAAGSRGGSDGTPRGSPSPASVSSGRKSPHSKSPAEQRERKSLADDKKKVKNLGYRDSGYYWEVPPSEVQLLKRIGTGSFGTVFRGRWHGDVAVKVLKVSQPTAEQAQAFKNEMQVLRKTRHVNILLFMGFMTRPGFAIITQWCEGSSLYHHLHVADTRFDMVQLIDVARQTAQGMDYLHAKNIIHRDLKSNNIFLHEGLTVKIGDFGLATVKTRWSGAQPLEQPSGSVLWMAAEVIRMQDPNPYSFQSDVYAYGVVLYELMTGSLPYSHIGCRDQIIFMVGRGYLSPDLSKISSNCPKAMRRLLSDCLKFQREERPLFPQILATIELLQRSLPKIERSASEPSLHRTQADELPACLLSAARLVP
Experimental: as §1

PI3K-C2α = PI3K-C2α (Homo sapiens, UniProt O00443); assay: Kinase panel, PI3K-C2α; format: biochemical; conditions: mean ± SEM
PI3K-C2α, sequence (O00443 whole entry): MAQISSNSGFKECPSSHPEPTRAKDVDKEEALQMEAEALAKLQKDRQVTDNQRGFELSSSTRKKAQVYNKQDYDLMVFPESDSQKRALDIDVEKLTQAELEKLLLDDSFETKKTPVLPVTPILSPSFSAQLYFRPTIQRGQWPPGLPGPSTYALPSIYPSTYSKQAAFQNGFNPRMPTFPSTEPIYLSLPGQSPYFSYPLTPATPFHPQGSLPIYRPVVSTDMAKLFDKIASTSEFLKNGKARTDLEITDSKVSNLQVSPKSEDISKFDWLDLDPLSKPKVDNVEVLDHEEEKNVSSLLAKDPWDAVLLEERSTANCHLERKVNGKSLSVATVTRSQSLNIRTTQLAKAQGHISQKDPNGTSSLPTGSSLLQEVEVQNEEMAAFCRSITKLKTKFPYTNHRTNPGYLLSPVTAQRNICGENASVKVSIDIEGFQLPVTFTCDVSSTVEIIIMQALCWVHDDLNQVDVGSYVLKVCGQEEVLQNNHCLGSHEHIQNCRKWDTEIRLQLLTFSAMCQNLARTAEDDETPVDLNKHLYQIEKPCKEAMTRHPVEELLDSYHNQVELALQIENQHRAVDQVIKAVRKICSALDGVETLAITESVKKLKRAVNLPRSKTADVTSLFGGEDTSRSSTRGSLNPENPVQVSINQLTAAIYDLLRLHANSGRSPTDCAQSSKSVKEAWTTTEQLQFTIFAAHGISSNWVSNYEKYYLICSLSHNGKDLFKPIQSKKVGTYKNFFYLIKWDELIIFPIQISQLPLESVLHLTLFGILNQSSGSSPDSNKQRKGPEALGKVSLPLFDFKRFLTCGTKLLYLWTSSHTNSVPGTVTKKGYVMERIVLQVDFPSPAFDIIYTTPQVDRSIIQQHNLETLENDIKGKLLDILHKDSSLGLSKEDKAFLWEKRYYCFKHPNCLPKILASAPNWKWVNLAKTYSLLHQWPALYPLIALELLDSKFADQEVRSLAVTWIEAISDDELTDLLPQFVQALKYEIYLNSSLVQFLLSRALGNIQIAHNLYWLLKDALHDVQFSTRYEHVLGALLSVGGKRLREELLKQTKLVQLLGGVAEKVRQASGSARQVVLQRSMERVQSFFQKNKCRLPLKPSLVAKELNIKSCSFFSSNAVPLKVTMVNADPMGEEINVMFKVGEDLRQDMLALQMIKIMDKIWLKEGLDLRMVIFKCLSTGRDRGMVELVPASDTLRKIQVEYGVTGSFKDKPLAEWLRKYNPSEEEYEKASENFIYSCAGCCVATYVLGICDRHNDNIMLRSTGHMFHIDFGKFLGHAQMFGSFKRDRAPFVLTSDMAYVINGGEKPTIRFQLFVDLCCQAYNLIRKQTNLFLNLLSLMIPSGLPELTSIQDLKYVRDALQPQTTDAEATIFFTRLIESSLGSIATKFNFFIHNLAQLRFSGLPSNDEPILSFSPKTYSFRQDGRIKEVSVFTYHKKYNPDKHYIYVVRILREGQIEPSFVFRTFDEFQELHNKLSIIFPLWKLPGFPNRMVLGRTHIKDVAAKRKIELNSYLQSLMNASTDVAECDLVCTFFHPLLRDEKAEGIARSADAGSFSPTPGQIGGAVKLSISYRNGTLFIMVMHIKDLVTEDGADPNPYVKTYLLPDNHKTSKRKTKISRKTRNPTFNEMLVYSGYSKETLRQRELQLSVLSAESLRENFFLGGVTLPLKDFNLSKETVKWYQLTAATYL
Experimental: as §1

ErbB4 = ErbB4 (Homo sapiens, UniProt Q15303); assay: Kinase panel, ErbB4; format: biochemical; conditions: mean ± SEM
Experimental: as §1

TRKA = TRKA (Homo sapiens, UniProt P04629); assay: Kinase panel, TRKA; format: biochemical; conditions: mean ± SEM
Experimental: as §1

VRK1 = VRK1 (Homo sapiens, UniProt Q99986); assay: Kinase panel, VRK1; format: biochemical; conditions: mean ± SEM
Experimental: as §1

V600E-B-RAF [3] = molecular target: T1, V600E-B-RAF (Homo sapiens, UniProt P15056, V600E); assay: In-cell kinase assay (MEK1 phosphorylation ELISA in MEF-V600E-B-RAF:ER cells); format: cell-based; conditions: MEF cell line, phospho-MEK1 readout, 90 min compound incubation; read-out: in-cell V600E-B-RAF kinase inhibition IC50
Experimental: MEF-V600E-B-RAF:ER cells were plated in Dulbecco’s modified eagle medium (DMEM) supplemented with 10% FCS in multiwell cell culture plates. Compound incubation (90 min at 37 °C) was done in serum-free medium. […] For stimulation, cells were treated with 1 µM hydroxytamoxifen for 1 h at room temperature. After cell lysis, quantification of MEK1 phosphorylation was assessed in 96-well plates via sandwich-ELISA using a MEK1 specific capture antibody and a phospho-MEK1-Ser218/222 specific detection antibody.

ROS = ROS (Homo sapiens, UniProt P08922); assay: Kinase panel, ROS; format: biochemical; conditions: mean ± SEM
Experimental: as §1

cKIT = cKIT (Homo sapiens, UniProt P10721); assay: Kinase panel, cKIT; format: biochemical; conditions: mean ± SEM
Experimental: as §1

[4] = tested on: CCD1106K normal skin epithelial cell line; assay: MTT assay, CCD1106K normal skin cells; format: cell-based; conditions: 48 h, mean of triplicate assays ± SEM, read-out: Antiproliferative activity (IC50 value, µM) CCD1106K normal skin cells
Experimental: as §2

FMS = FMS (Homo sapiens, UniProt P07333); assay: Kinase panel, FMS; format: biochemical; conditions: mean ± SEM
Experimental: as §1

RAF1 = RAF1 (Homo sapiens, UniProt P04049); assay: Cell-free kinase profiling, RAF1; format: biochemical; conditions: for inhibition at 1 µM / One-dose (1 µM) results against RAF1 (% inhibition): mean of duplicate assays ± SEM; for inhibition at 1 µM: read-out: One-dose (1 µM) results against RAF1 (% inhibition)
RAF1, sequence (P04049 whole entry): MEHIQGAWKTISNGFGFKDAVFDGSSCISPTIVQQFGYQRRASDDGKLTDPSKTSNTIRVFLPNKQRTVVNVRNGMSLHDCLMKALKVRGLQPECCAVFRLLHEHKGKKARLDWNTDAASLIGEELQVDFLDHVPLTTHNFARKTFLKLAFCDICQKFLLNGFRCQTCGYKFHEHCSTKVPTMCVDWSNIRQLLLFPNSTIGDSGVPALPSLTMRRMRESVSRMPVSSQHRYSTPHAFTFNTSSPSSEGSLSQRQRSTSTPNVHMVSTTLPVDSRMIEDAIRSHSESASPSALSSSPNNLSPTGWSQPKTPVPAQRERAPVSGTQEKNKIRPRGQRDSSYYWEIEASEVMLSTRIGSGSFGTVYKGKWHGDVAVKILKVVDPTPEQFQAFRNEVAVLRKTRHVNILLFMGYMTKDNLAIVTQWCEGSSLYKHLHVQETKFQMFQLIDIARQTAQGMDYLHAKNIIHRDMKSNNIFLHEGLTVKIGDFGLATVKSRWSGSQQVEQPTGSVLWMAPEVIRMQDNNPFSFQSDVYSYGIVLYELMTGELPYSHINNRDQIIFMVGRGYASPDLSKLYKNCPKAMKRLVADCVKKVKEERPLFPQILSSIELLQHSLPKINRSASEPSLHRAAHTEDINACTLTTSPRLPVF
Experimental: as §1

FLT3 = FLT3 (Homo sapiens, UniProt P36888); assay: Kinase panel, FLT3; format: biochemical
FLT3, sequence (P36888 27-993, species assumed): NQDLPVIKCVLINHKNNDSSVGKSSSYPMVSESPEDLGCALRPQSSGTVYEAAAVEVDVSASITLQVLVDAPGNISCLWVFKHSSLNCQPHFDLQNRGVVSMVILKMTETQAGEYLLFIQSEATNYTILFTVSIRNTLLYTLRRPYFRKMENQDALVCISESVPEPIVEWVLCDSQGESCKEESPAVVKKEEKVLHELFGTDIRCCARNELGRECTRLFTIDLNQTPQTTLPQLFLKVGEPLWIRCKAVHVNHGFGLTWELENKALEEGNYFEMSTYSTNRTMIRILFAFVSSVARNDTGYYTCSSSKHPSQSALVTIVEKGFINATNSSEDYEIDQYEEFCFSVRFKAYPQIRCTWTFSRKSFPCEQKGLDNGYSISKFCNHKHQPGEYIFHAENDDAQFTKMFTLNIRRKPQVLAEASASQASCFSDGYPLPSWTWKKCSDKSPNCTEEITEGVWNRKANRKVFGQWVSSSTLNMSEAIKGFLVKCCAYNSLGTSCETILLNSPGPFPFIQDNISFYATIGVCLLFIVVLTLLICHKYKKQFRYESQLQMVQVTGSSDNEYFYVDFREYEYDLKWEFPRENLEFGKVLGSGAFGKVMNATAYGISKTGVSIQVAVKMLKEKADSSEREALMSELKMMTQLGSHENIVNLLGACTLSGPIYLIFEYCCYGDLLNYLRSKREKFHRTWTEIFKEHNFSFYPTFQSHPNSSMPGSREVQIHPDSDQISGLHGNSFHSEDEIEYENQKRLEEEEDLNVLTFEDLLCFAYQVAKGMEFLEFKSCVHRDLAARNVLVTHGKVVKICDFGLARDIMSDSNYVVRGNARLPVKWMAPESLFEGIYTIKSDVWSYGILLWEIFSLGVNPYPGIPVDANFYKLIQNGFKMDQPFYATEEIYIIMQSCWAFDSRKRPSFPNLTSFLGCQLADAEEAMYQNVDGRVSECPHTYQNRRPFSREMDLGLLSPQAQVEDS
Experimental: as §1

ErbB2 = ErbB2 (Homo sapiens, UniProt P04626); assay: Kinase panel, ErbB2; format: biochemical; conditions: mean ± SEM
Experimental: as §1

[5] = tested on: MDA-MB-435 melanoma cell line; assay: MTT assay, MDA-MB-435; format: cell-based; conditions: Homo sapiens, 48 h, mean of triplicate assays ± SEM, read-out: Antiproliferative activity (IC50 value, µM) MDA-MB-435
Experimental: as §2

PDGFRβ = PDGFRβ (Homo sapiens, UniProt P09619); assay: Kinase panel, PDGFRβ; format: biochemical; conditions: mean ± SEM
Experimental: as §1

EGFR = EGFR (Homo sapiens, UniProt P00533); assay: Kinase panel, EGFR; format: biochemical; conditions: mean ± SEM
Experimental: as §1

MEK2 = MEK2 (Homo sapiens, UniProt P36507); assay: Kinase panel, MEK2; format: biochemical; conditions: mean ± SEM
MEK2, sequence (P36507 whole entry): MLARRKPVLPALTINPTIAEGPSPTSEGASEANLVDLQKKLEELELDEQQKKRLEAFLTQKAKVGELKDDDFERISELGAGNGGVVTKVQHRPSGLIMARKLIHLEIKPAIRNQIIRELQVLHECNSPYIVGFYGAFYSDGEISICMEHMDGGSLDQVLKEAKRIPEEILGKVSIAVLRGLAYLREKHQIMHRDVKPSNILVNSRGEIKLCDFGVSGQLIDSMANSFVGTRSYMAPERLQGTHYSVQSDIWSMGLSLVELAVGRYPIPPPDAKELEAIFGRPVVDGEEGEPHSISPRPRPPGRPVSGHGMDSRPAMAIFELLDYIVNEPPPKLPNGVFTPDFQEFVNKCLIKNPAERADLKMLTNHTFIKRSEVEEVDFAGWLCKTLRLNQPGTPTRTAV
Experimental: as §1

V600E-B-RAF [6] = molecular target: T1, V600E-B-RAF; assay: Cell-free kinase profiling, V600E-B-RAF; format: biochemical; conditions: for inhibition at 1 µM / One-dose (1 µM) results against V600E-B-RAF (% inhibition): mean of duplicate assays ± SEM; for inhibition at 1 µM: read-out: One-dose (1 µM) results against V600E-B-RAF (% inhibition)
Experimental: The reaction was initiated by the addition of the Mg-ATP mix. After incubation for 40 min at room temperature, the reaction was stopped by the addition of 5 µL of a 3% phosphoric acid solution. 10 µL of the reaction was then spotted onto a P30 filtermat and washed three times for 5 min in 75 mM phosphoric acid and once in methanol before drying and scintillation counting.
Target sequence in this assay (P15056 whole entry V600E): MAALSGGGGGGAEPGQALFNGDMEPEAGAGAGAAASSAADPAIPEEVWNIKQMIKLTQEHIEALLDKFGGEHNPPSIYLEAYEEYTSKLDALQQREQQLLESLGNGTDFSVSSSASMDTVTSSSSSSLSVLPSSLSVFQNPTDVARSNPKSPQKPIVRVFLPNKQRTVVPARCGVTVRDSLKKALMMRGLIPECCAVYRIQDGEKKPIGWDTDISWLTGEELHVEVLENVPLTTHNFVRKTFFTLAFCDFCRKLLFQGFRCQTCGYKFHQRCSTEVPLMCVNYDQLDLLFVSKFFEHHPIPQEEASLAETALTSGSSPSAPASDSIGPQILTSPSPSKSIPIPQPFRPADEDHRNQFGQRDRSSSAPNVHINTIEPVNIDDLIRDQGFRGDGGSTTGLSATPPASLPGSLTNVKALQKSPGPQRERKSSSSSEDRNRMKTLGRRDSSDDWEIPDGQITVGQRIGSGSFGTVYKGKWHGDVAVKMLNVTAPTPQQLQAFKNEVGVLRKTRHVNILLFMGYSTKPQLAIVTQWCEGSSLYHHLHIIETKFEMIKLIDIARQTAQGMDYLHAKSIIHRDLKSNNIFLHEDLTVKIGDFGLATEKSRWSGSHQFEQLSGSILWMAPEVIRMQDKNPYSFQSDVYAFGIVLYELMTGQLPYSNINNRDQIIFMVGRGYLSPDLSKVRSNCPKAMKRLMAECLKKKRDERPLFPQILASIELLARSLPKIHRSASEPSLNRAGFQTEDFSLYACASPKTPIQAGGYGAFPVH

MEK1 = MEK1 (Homo sapiens, UniProt Q02750); assay: Kinase panel, MEK1; format: biochemical; conditions: mean ± SEM
Experimental: as §1

BTK = BTK (Homo sapiens, UniProt Q06187); assay: Kinase panel, BTK; format: biochemical; conditions: mean ± SEM
Experimental: as §1

PI3Kα = PI3Kα (Homo sapiens, UniProt P42336); assay: Kinase panel, PI3Kα; format: biochemical; conditions: mean ± SEM
Experimental: as §1

four melanoma cell lines = assay: MTT assay, four melanoma cell lines (range); format: cell-based; conditions: range over A375, MDA-MB-435, SK-MEL-28, UACC-62; read-out: IC50 against four melanoma cell lines (range)
Experimental: as §2

KDR = KDR (Homo sapiens, UniProt P35968); assay: Kinase panel, KDR; format: biochemical; conditions: mean ± SEM
Experimental: as §1

LCK = LCK (Homo sapiens, UniProt P06239); assay: Kinase panel, LCK; format: biochemical; conditions: mean ± SEM
Experimental: as §1

[7] = 10-dose mode, read-out: IC50 value (nM) against V600E-B-RAF
[8] = 10-dose mode, read-out: IC50 value (nM) against RAF1
[9] = from the IC50 values of Table 1, used for QSAR

- inhibition at 1 µM (ALK): 41.2%
- inhibition at 1 µM (JNK1(α1)): 0.76%
- inhibition at 1 µM (Aurora-A): 49.8%
- inhibition at 1 µM (ABL): 7.57%
- IC50 [1]: 0.18 ± 0.02 µM
- inhibitory effect against all the other kinases of the panel (30-kinase panel): less than 50%
- inhibition at 1 µM (DMPK): 0.84%
- inhibition at 1 µM (JAK1): -0.26%
- IC50 [2]: 0.38 ± 0.05 µM
- inhibition at 1 µM (mTOR): 7.83%
- IC50 (A375 melanoma cell line): 0.46 ± 0.03 µM
- inhibition at 1 µM (B-RAF^wt): 23.4%
- inhibition at 1 µM (JAK2): 3.76%
- inhibition at 1 µM (A-RAF): 9.14%
- inhibition at 1 µM (PI3K-C2α): 50%
- inhibition at 1 µM (ErbB4): 13.7%
- inhibition at 1 µM (TRKA): 46.7%
- inhibition at 1 µM (VRK1): 3.93%
- IC50 (V600E-B-RAF [3]): 190 nM
- inhibition at 1 µM (ROS): 2.02%
- inhibition at 1 µM (cKIT): 9.63%
- inhibition at 1 µM (FMS): 12.2%
- inhibition at 1 µM (RAF1): 99.4%
- IC50 (RAF1; from the IC50 values of Table 1, used for QSAR, read-out: pIC50 (RAF1) (converted)): 8.2 nM
- inhibition at 1 µM (FLT3; 1 µM, mean ± SEM): 73.1%
- IC50 (FLT3; read-out: IC50 (nM) against FLT3): 838 nM
- inhibition at 1 µM (ErbB2): 2.17%
- IC50 [5]: 0.59 ± 0.06 µM
- inhibition at 1 µM (PDGFRβ): 12.5%
- inhibition at 1 µM (EGFR): 19.9%
- inhibition at 1 µM (MEK2): 26.6%
- inhibition at 1 µM (V600E-B-RAF [6]): 99.5%
- IC50 (V600E-B-RAF [6]; [7]): 0.978 nM
- inhibition at 1 µM (MEK1): 1.5%
- inhibition at 1 µM (BTK): 17%
- inhibition at 1 µM (PI3Kα): 5.85%
- IC50 (four melanoma cell lines): 180 to 590 nM
- inhibition at 1 µM (KDR): 18.8%
- inhibition at 1 µM (LCK): 12.4%
SMILES: O=C(NCCNc1nccc(-c2c(-c3cccc(O)c3)nc3sccn23)n1)c1ccccc1 [Compound 1zb]
- IC50 [4]: 9.26 ± 0.38 µM

- One-dose (1 µM) results against RAF1 (% inhibition) (RAF1): 99.32% ± 0.23%
- IC50 (RAF1; [8]): 10.5 nM
- pIC50 (RAF1) (RAF1; [9]): 7.979
- One-dose (1 µM) results against V600E-B-RAF (% inhibition) (V600E-B-RAF [6]): 101.07% ± 1.53%
- IC50 (V600E-B-RAF [6]; [7]): 1.9 nM
- pIC50 (V600E- B-RAF) (V600E-B-RAF [6]; [9]): 8.721
SMILES: O=C(NCCNc1nccc(-c2c(-c3cccc(O)c3)nc3sccn23)n1)c1ccccc1O [Compound 1zc]

- One-dose (1 µM) results against RAF1 (% inhibition) (RAF1): 59.25% ± 2.53%
- One-dose (1 µM) results against V600E-B-RAF (% inhibition) (V600E-B-RAF [6]): 90.82% ± 0.25%
- IC50 (V600E-B-RAF [6]; [7]): 100 nM
- pIC50 (V600E- B-RAF) (V600E-B-RAF [6]; [9]): 7.000
SMILES: COc1cccc(-c2nc3sccn3c2-c2ccnc(NCCNC(=O)c3ccccc3O)n2)c1 [Compound 1v]

SMILES: CNC(=O)c1cc(Oc2ccc(NC(=O)Nc3ccc(Cl)c(C(F)(F)F)c3)cc2)ccn1 [Sorafenib, sorafenib, reference compound]
- IC50 [1]: 1.95 ± 0.08 µM
- IC50 (A375 melanoma cell line): 5.45 ± 0.53 µM
- IC50 [4]: 11.6 ± 0.46 µM
- IC50 [5]: 3.16 ± 0.2 µM
- IC50 (four melanoma cell lines): 1950 to 5450 nM

- One-dose (1 µM) results against RAF1 (% inhibition) (RAF1): 74.00% ± 0.64%
- One-dose (1 µM) results against V600E-B-RAF (% inhibition) (V600E-B-RAF [6]): 95.03% ± 0.66%
- IC50 (V600E-B-RAF [6]; [7]): 45.1 nM
- pIC50 (V600E- B-RAF) (V600E-B-RAF [6]; [9]): 7.346
SMILES: COc1cccc(-c2nc3sccn3c2-c2ccnc(NCCNC(=O)c3ccccc3)n2)c1 [Compound 1u]

- inhibition at 1 µM (RAF1): 90.8%
- IC50 (RAF1; [8]): 158 nM
- inhibition at 1 µM (V600E-B-RAF [6]): 99%
- IC50 (V600E-B-RAF [6]; from the IC50 values of Table 1, used for QSAR, read-out: pIC50 (V600E- B-RAF) (converted)): 15.8 nM
SMILES: O=C(NCCNc1nccc(-c2c(-c3cccc(O)c3)nc3sccn23)n1)c1ccc(N2CCOCC2)c(C(F)(F)F)c1 [Compound 1zg]
